Columns and labels:
[1] = test system: Cushing's syndrome patients; assay: Cushing's syndrome patient study: coagulation factors, platelets, aPTT; assay type: in vivo, human
Description: (§1) All patients gave informed consent before participating in any study-related procedures. […] The study protocol called for patient visits to the study site at screening, on Day 1 (baseline), Weeks 2, 4, 6, 8, 10, and 12, and after a 4-week follow-up period for Group 1. For Group 2, the protocol called for patient visits to the study site at screening, on Day 1 (baseline), Weeks 2, 4, 6, 8, 10, 12, 14, and 16, and after a 4-week follow-up period. Patient dosing will be done at home, except on days of study visits. […] The safety protocol also included assessments by physical examination findings, vital signs, ECG results, pregnancy tests, clinical laboratory test results (hematology and chemistry panels), adverse events (AEs), and concomitant medications. […] It ignores noncompliance, protocol deviations, withdrawal, and anything that happens after randomization. In contrast, per-protocol (PP) analysis refers to inclusion in the analysis of only those patients who strictly adhered to the protocol. The PP analysis provides an estimate of the true efficacy of an intervention, i.e., among those who completed the treatment as planned.

[2] = test system: Cushing's syndrome patients; assay: Phase 2 CORT125134-451 study in Cushing syndrome: overall clinical efficacy; assay type: in vivo, human
Method: All patients gave informed consent before participating in any study-related procedures. […] Response criteria for hyperglycemia were changes from baseline in glucose tolerance as measured by: ≥0.5% decrease in HbA1c, normalization or ≥50 mg/dL decrease in 2-hr OGTT glucose, or decrease in total daily insulin (≥25%) or sulfonylurea dose (≥50%). Response criteria for hypertension (HTN) was a ≥5 mm Hg decrease in mean systolic and/or diastolic blood pressure (SBP/DBP). […] The efficacy of the drug in Cushing syndrome was assessed based on the improvement of morbidities associated with excess cortisol activity, e.g. hyperglycaemia, hypertension, cognitive dysfunction, depression, poor quality of life, hypercoagulopathy and obesity. (A morbidity associated with excess cortisol, e.g., associated with hypercortisolemia, Cushing's syndrome, Cushing's disease, etc., is also termed a “comorbidity”.)

[3] = test system: Cushing's syndrome patients; assay: Cushing's syndrome patient study: ECG; assay type: in vivo, human; settings: All Subjects
Description: as §1

[4] = test system: other nuclear steroid hormone receptors; assay: Binding to other nuclear steroid hormone receptors
[5] = Abnormal at Baseline, mITT, Group 1 (100-200 mg/day, 12 weeks)
[6] = Abnormal at Baseline, mITT, Group 2 (250-400 mg/day, 16 weeks)
[7] = Abnormal at Baseline, mITT, Overall
[8] = Abnormal at Baseline, mPP, Group 1 (100-200 mg/day, 12 weeks)
[9] = Abnormal at Baseline, mPP, Group 2 (250-400 mg/day, 16 weeks)
[10] = Abnormal at Baseline, mPP, Overall
[11] = All Subjects, mITT, Group 1 (100-200 mg/day, 12 weeks)
[12] = All Subjects, mITT, Group 2 (250-400 mg/day, 16 weeks)
[13] = All Subjects, mPP, Group 1 (100-200 mg/day, 12 weeks)
[14] = All Subjects, mPP, Group 2 (250-400 mg/day, 16 weeks)
[15] = Safety population, Group 1 (100-200 mg/day, 12 weeks)
[16] = Safety population, Group 2 (250-400 mg/day, 16 weeks)
[17] = mITT, Group 1 (100-200 mg/day, 12 weeks)
[18] = mITT, Group 2 (250-400 mg/day, 16 weeks)

## Cn1cc(S(=O)(=O)N2CCC3=Cc4c(cnn4-c4ccc(F)cc4)C[C@]3(C(=O)c3cc(C(F)(F)F)ccn3)C2)cn1 [relacorilant, (R)-(1-(4-fluorophenyl)-6-((1-methyl-1H-pyrazol-4-yl)sulfonyl)-4,4a,5,6,7,8-hexahydro-1H-pyrazolo[3,4-g]isoquinolin-4a-yl) (4-(trifluoromethyl)pyridin-2-yl)methanone]
[1]; [5]
  Factor IX mean change from Baseline to Last Observed: −40.8%
  Factor X mean change from Baseline to Last Observed: −15.8%
  Thrombin-Antithrombin mean change from Baseline to Last Observed: 1.61 µg/L
[1]; [6]
  Factor IX mean change from Baseline to Last Observed: −4.2%
  Factor X mean change from Baseline to Last Observed: −22%
  Thrombin-Antithrombin mean change from Baseline to Last Observed: -9.83 µg/L
  von Willebrand Factor mean change from Baseline to Last Observed: −18.5%
[1]; [7]
  Factor IX mean change from Baseline to Last Observed: −22.5%
  Factor X mean change from Baseline to Last Observed: −18.13%
  Thrombin-Antithrombin mean change from Baseline to Last Observed: -3.88 µg/L
  von Willebrand Factor mean change from Baseline to Last Observed: −18.5%
[1]; [8]
  Factor IX mean change from Baseline to Last Observed: −40.8%
  Factor X mean change from Baseline to Last Observed: −15.8%
  Thrombin-Antithrombin mean change from Baseline to Last Observed: 1.61 µg/L
[1]; [9]
  Factor IX mean change from Baseline to Last Observed: −4.2%
  Factor X mean change from Baseline to Last Observed: −22%
  Thrombin-Antithrombin mean change from Baseline to Last Observed: -9.83 µg/L
  von Willebrand Factor mean change from Baseline to Last Observed: −18.5%
[1]; [10]
  Factor IX mean change from Baseline to Last Observed: −22.5%
  Factor X mean change from Baseline to Last Observed: −18.13%
  Thrombin-Antithrombin mean change from Baseline to Last Observed: -3.88 µg/L
  von Willebrand Factor mean change from Baseline to Last Observed: −18.5%
[1]; [11]
  Factor IX mean change from Baseline to Last Observed: −11.59%
  Factor VIII mean change from Baseline to Last Observed: −11.94%
  Factor X mean change from Baseline to Last Observed: −0.06%
  Platelet Count mean change from Baseline to Last Observed: −62.82 10^9/L
  Thrombin-Antithrombin mean change from Baseline to Last Observed: 1.48 µg/L
  aPTT mean change from Baseline to Last Observed: 2.24 s
  von Willebrand Factor mean change from Baseline to Last Observed: 2.88%
[1]; [12]
  Factor IX mean change from Baseline to Last Observed: 6.44%
  Factor VIII mean change from Baseline to Last Observed: −26.38%
  Factor X mean change from Baseline to Last Observed: −8.88%
  Platelet Count mean change from Baseline to Last Observed: −74.82 10^9/L
  Thrombin-Antithrombin mean change from Baseline to Last Observed: -7.13 µg/L
  aPTT mean change from Baseline to Last Observed: 0.5 s
  von Willebrand Factor mean change from Baseline to Last Observed: 10.88%
[1]; All Subjects, mITT, Overall
  Factor IX mean change from Baseline to Last Observed: −2.85%
  Factor VIII mean change from Baseline to Last Observed: −18.94%
  Factor X mean change from Baseline to Last Observed: −4.33%
  Platelet Count mean change from Baseline to Last Observed: −68.82 10^9/L
  Thrombin-Antithrombin mean change from Baseline to Last Observed: -2.69 µg/L
  aPTT mean change from Baseline to Last Observed: 1.45 s
  von Willebrand Factor mean change from Baseline to Last Observed: 6.76%
[1]; [13]
  Factor IX mean change from Baseline to Last Observed: −11.59%
  Factor VIII mean change from Baseline to Last Observed: −11.94%
  Factor X mean change from Baseline to Last Observed: −0.06%
  Thrombin-Antithrombin mean change from Baseline to Last Observed: 1.48 µg/L
  aPTT mean change from Baseline to Last Observed: 2.24 s
  von Willebrand Factor mean change from Baseline to Last Observed: 2.88%
[1]; [14]
  Factor IX mean change from Baseline to Last Observed: 6.44%
  Factor VIII mean change from Baseline to Last Observed: −26.38%
  Factor X mean change from Baseline to Last Observed: −8.88%
  Thrombin-Antithrombin mean change from Baseline to Last Observed: -7.13 µg/L
  aPTT mean change from Baseline to Last Observed: 0.5 s
  von Willebrand Factor mean change from Baseline to Last Observed: 10.88%
[1]; All Subjects, mPP, Overall
  Factor IX mean change from Baseline to Last Observed: −2.85%
  Factor VIII mean change from Baseline to Last Observed: −18.94%
  Factor X mean change from Baseline to Last Observed: −4.33%
  Thrombin-Antithrombin mean change from Baseline to Last Observed: -2.69 µg/L
  aPTT mean change from Baseline to Last Observed: 1.45 s
  von Willebrand Factor mean change from Baseline to Last Observed: 6.76%
[1]; Cushing's syndrome patients
  coagulation factors (FIG. 3): improvement in coagulation factors
[1]; treatment with relacorilant
  onset of improvement/normalization of abnormally elevated coagulation factors: as early as after one month
[2]; Cushing's syndrome patients
  reduction of the effects of excess cortisol: effective in reducing many of the effects of excess cortisol
[2]; after achieving a therapeutic dose
  time to improvement in hyperglycaemia and hypertension: within two weeks
[2]; dosages up to 400 mg/day
  clinical effect on hyperglycemia and hypertension: clinical improvement in hyperglycemia and hypertension
[2]; high-dose group
  secondary endpoints: hypercoagulopathy, liver function, serum osteocalcin, cognitive function, depression, quality of life: statistically significant improvements
[2]; two patients treated previously with metyrapone
  efficacy relative to previous metyrapone therapy (primary and secondary endpoints): higher efficacy
[3]; [15]
  ECG Median Heart Rate mean change from Baseline to Last Observed: 8 beats/min
  PR Interval, Aggregate mean change from Baseline to Last Observed: 2.72 ms
  QRS Duration, Aggregate mean change from Baseline to Last Observed: -0.79 ms
  QT Interval, Aggregate mean change from Baseline to Last Observed: -15.85 ms
  QTcB Interval, Aggregate mean change from Baseline to Last Observed: 5.58 ms
  QTcF Interval, Aggregate mean change from Baseline to Last Observed: -1.98 ms
  RR Interval, Aggregate mean change from Baseline to Last Observed: -93.14 ms
[3]; [16]
  ECG Median Heart Rate mean change from Baseline to Last Observed: 5.23 beats/min
  PR Interval, Aggregate mean change from Baseline to Last Observed: -4.2 ms
  QRS Duration, Aggregate mean change from Baseline to Last Observed: -0.77 ms
  QT Interval, Aggregate mean change from Baseline to Last Observed: -11.04 ms
  QTcB Interval, Aggregate mean change from Baseline to Last Observed: 2.28 ms
  QTcF Interval, Aggregate mean change from Baseline to Last Observed: -2.54 ms
  RR Interval, Aggregate mean change from Baseline to Last Observed: -56.67 ms
[3]; Safety population, Overall
  ECG Median Heart Rate mean change from Baseline to Last Observed: 6.7 beats/min
  PR Interval, Aggregate mean change from Baseline to Last Observed: -0.4 ms
  QRS Duration, Aggregate mean change from Baseline to Last Observed: -0.78 ms
  QT Interval, Aggregate mean change from Baseline to Last Observed: -13.6 ms
  QTcB Interval, Aggregate mean change from Baseline to Last Observed: 4.03 ms
  QTcF Interval, Aggregate mean change from Baseline to Last Observed: -2.24 ms
  RR Interval, Aggregate mean change from Baseline to Last Observed: -76.04 ms
[3]; [17]
  ECG Median Heart Rate mean change from Baseline to Last Observed: 8 beats/min
  PR Interval, Aggregate mean change from Baseline to Last Observed: 2.72 ms
  QRS Duration, Aggregate mean change from Baseline to Last Observed: -0.79 ms
  QT Interval, Aggregate mean change from Baseline to Last Observed: -15.85 ms
  QTcB Interval, Aggregate mean change from Baseline to Last Observed: 5.58 ms
  QTcF Interval, Aggregate mean change from Baseline to Last Observed: -1.98 ms
  RR Interval, Aggregate mean change from Baseline to Last Observed: -93.14 ms
[3]; [18]
  ECG Median Heart Rate mean change from Baseline to Last Observed: 5.23 beats/min
  PR Interval, Aggregate mean change from Baseline to Last Observed: -4.2 ms
  QRS Duration, Aggregate mean change from Baseline to Last Observed: -0.77 ms
  QT Interval, Aggregate mean change from Baseline to Last Observed: -11.04 ms
  QTcB Interval, Aggregate mean change from Baseline to Last Observed: 2.28 ms
  QTcF Interval, Aggregate mean change from Baseline to Last Observed: -2.54 ms
  RR Interval, Aggregate mean change from Baseline to Last Observed: -56.67 ms
[3]; mITT, Overall
  ECG Median Heart Rate mean change from Baseline to Last Observed: 6.7 beats/min
  PR Interval, Aggregate mean change from Baseline to Last Observed: -0.4 ms
  QRS Duration, Aggregate mean change from Baseline to Last Observed: -0.78 ms
  QT Interval, Aggregate mean change from Baseline to Last Observed: -13.6 ms
  QTcB Interval, Aggregate mean change from Baseline to Last Observed: 4.03 ms
  QTcF Interval, Aggregate mean change from Baseline to Last Observed: -2.24 ms
  RR Interval, Aggregate mean change from Baseline to Last Observed: -76.04 ms
[4]
  binding to other nuclear steroid hormone receptors: does not bind

— patent US12097192B2 (Corcept Therapeutics Incorporated, priority 2019, dated 2024)
